Measured values published in ChEMBL document CHEMBL1201862, “PubChem BioAssay data set” (2004).
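Exposure lasted 48 hours, with cells grown in 96-well plates and compounds tested at five concentrations. Abbreviation: GI50, concentration required for 50% inhibition of growth.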 Calls of active or inactive are those of the source. No stated cut-off is given here; in the data, active = GI50 up to about 1.1 µM and inactive = higher.

Assays:
Experiment in all cases: NCI anticancer screen, dose series, 48 h
[1] = system: NCI-H226
[2] = system: HOP-92
[3] = system: UO-31
[4] = system: OVCAR-8
[5] = system: NCI-H23
[6] = system: OVCAR-3
[7] = system: SF-268
[8] = system: CCRF-CEM
[9] = system: BT-549
[10] = system: KM12
[11] = system: PC-3
[12] = system: SN12C
[13] = system: HL-60
[14] = system: DU-145
[15] = system: OVCAR-5
[16] = system: U-251
[17] = system: T47D
[18] = system: HCC 2998
[19] = system: MCF7

Measured: GI50

COc1ccc(-c2cc(-c3cc(F)c(Cl)cc3Cl)[nH]n2)cc1OC
inactive: [1] 20.8 µM | [2] 20.6 µM | [3] 85.3 µM | [4] 34.4 µM | [5] 30 µM | [6] 15.2 µM | [7] 29.2 µM | [8] 11.6 µM | [9] 30.2 µM | [10] 26.4 µM | [11] 21.2 µM | [12] 22.7 µM | [13] 15.6 µM | [14] 33.1 µM | [15] > 100 µM | [16] 26.9 µM | [17] 28.6 µM

CCOC(=O)Nc1ccc2c(c1)c(CCCCCCc1nc3ccccc3c3ccc(NC(=O)OCC)cc13)nc1ccccc12
inactive: [1] 23.9 µM | [2] 21.8 µM | [3] 68.4 µM | [4] 25.4 µM | [18] > 100 µM | [5] > 100 µM | [6] 21.3 µM | [7] 26.5 µM | [19] > 100 µM | [8] > 100 µM | [10] > 100 µM | [11] > 100 µM | [12] 40.6 µM | [13] > 100 µM | [14] > 100 µM | [15] > 100 µM | [17] > 100 µM

NC1=C(c2nc(-c3ccccc3)cs2)C(c2ccco2)c2c(c3ccccc3oc2=O)O1 (stereo not drawn)
inactive: [1] 38.2 µM | [2] 53.3 µM | [3] > 100 µM | [4] > 100 µM | [18] > 100 µM | [5] > 100 µM | [6] > 100 µM | [7] > 100 µM | [19] > 100 µM | [8] > 100 µM | [9] > 100 µM | [11] > 100 µM | [12] > 100 µM | [13] > 100 µM | [14] > 100 µM | [15] > 100 µM | [16] > 100 µM

COc1ccc(-c2c(C(C)=O)c(C)n(C3OC(COC(C)=O)C(OC(C)=O)C(OC(C)=O)C3OC(C)=O)c(=S)c2C#N)cc1 (stereo not drawn)
inactive: [1] > 100 µM | [2] 15 µM | [3] 2.15 µM | [4] > 100 µM | [18] > 100 µM | [5] > 100 µM | [6] > 100 µM | [7] > 100 µM | [19] > 100 µM | [8] 42.3 µM | [10] > 100 µM | [11] 45.2 µM | [12] > 100 µM | [13] 63.5 µM | [14] > 100 µM | [15] > 100 µM | [16] > 100 µM | [17] > 100 µM

O=c1c(Br)cc2c(-c3ccccc3)c3cc(Br)c(O)c(Br)c3oc-2c1Br
inactive: [1] > 100 µM | [2] > 100 µM | [3] > 100 µM | [4] > 100 µM | [18] 83.8 µM | [5] > 100 µM | [6] > 100 µM | [7] > 100 µM | [19] 79.3 µM | [8] > 100 µM | [10] > 100 µM | [11] > 100 µM | [12] > 100 µM | [13] 51.6 µM | [14] > 100 µM | [15] > 100 µM | [16] > 100 µM | [17] > 100 µM

O=C(O)c1cc2ccccc2c(/N=N/c2c([N+](=O)[O-])cc([N+](=O)[O-])cc2S(=O)(=O)O)c1O
inactive: [1] > 100 µM | [2] > 100 µM | [3] > 100 µM | [4] > 100 µM | [5] > 100 µM | [6] > 100 µM | [7] > 100 µM | [8] > 100 µM | [9] > 100 µM | [10] > 100 µM | [11] > 100 µM | [12] > 100 µM | [15] > 100 µM | [16] > 100 µM

O=C1C(Cl)=C(Nc2ccc(S(=O)(=O)O)cc2)C(=O)c2ccccc21
inactive: [1] 34.4 µM | [2] 17.3 µM | [3] 15 µM | [4] 30.1 µM | [18] 95.9 µM | [5] 37.7 µM | [6] 20.8 µM | [7] 39.3 µM | [19] 20.9 µM | [8] 26.7 µM | [9] 76.2 µM | [10] 22 µM | [11] 23 µM | [13] 26.9 µM | [14] 16.3 µM | [15] > 100 µM | [16] 36.8 µM

COc1ccc(-c2nnc(CCCCCCCCc3nnc(-c4ccc(OC)cc4)o3)o2)cc1
inactive: [1] > 100 µM | [2] 41.1 µM | [3] > 100 µM | [4] 57.9 µM | [18] > 100 µM | [5] > 100 µM | [6] > 100 µM | [7] > 100 µM | [19] > 100 µM | [8] > 100 µM | [9] 16.7 µM | [10] > 100 µM | [11] > 100 µM | [12] > 100 µM | [13] > 100 µM | [14] > 100 µM | [15] > 100 µM | [16] 27.6 µM

O=[N+]([O-])c1ccc(OCc2nnc(CCCCCCCCc3nnc(COc4ccc([N+](=O)[O-])cc4)o3)o2)cc1
inactive: [1] > 100 µM | [2] > 100 µM | [3] > 100 µM | [18] > 100 µM | [5] 81.5 µM | [6] > 100 µM | [7] 44.5 µM | [19] > 100 µM | [9] > 100 µM | [10] 55.3 µM | [11] > 100 µM | [12] > 100 µM | [14] > 100 µM | [15] > 100 µM | [16] 95.9 µM

Cc1ncc([N+](=O)[O-])n1CCNC(=O)CCCn1cnc([N+](=O)[O-])n1
inactive: [1] > 100 µM | [2] > 100 µM | [3] > 100 µM | [4] > 95.9 µM | [18] > 100 µM | [5] > 100 µM | [6] > 100 µM | [7] > 100 µM | [19] > 100 µM | [8] > 100 µM | [10] > 100 µM | [11] > 100 µM | [12] > 41.8 µM | [13] > 100 µM | [14] > 100 µM | [15] > 100 µM | [16] > 100 µM | [17] > 100 µM

COc1cccc(N(CN2C(=O)CCC2OC)C(C)=O)c1 (stereo not drawn)
inactive: [1] > 100 µM | [2] > 100 µM | [3] > 100 µM | [4] > 100 µM | [18] > 100 µM | [5] > 100 µM | [6] > 100 µM | [7] > 100 µM | [19] > 100 µM | [8] > 100 µM | [10] > 100 µM | [11] > 100 µM | [12] > 100 µM | [13] 22.6 µM | [14] > 100 µM | [15] > 100 µM | [16] > 100 µM | [17] > 100 µM

Cc1ccc2[nH]c(=N/c3ccccc3C)/c(=N\c3ccccc3C)[nH]c2c1
inactive: [1] 29.2 µM | [2] 19.4 µM | [3] 19.4 µM | [4] 34.3 µM | [18] 23.5 µM | [5] 15.7 µM | [6] 22.4 µM | [7] 48.1 µM | [19] 77.3 µM | [8] > 46.8 µM | [10] 17.6 µM | [11] 31.3 µM | [12] 32.7 µM | [13] 46.2 µM | [14] 41.1 µM | [15] 21.5 µM | [16] 26.1 µM | [17] 19.3 µM

CSc1ncnc2c1ncn2CCC(=O)OC(C)(C)C
inactive: [1] > 100 µM | [2] > 100 µM | [3] > 100 µM | [4] > 100 µM | [18] > 100 µM | [5] > 100 µM | [6] > 100 µM | [7] > 100 µM | [19] > 100 µM | [8] > 100 µM | [10] > 100 µM | [11] > 100 µM | [12] > 100 µM | [13] > 100 µM | [14] > 100 µM | [15] > 100 µM | [17] > 100 µM

C=CC[C@@]12CCC(=O)C=C1CCCC2=O
inactive: [1] > 100 µM | [2] > 100 µM | [3] > 100 µM | [18] > 100 µM | [5] > 100 µM | [6] > 100 µM | [7] > 100 µM | [19] > 100 µM | [11] > 100 µM | [12] > 100 µM | [13] > 100 µM | [14] > 100 µM | [15] > 100 µM | [16] > 100 µM | [17] > 100 µM

Cn1c(N/N=C/c2ccccc2)nc(-c2ccc([N+](=O)[O-])cc2)c(C#N)c1=O
inactive: [2] 16.5 µM | [3] 43.6 µM | [4] 34.3 µM | [5] 44.3 µM | [6] 20.5 µM | [7] 39.7 µM | [19] 13.1 µM | [8] 26 µM | [10] 26.9 µM | [11] 59.6 µM | [12] 47.2 µM | [13] 11 µM | [14] 34.7 µM | [15] 38.6 µM | [16] 66.1 µM | [17] 97.9 µM
